Inconclusive results and toxic doses are left out. Cut-off read from the data, not from the text of the source: active = T/C of 150% or more; inactive = T/C below 125%.
System: L1210 leukemia ip in BDF1 mice, survival T/C
Test: NCI In Vivo Anticancer Drug Screen. Data for tumor model L1210 Leukemia (intraperitoneal) in B6D2F1 (BDF1) mice
Conditions: endpoint: mean survival time, vehicle: saline, higher = longer survival
Method in brief: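 Transplantable tumor model; survival measured in treated vs vehicle control mice. Value = treated/control.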

Measured: T/C

N=C(N)N=Nc1cc(O)c(NN=C(N)N)cc1O
inactive: dose: 7.5 mg/kg/injection, schedule: Q01DX Z (oral) 95 % of control | dose: 15.0 mg/kg/injection, schedule: Q01DX Z (ip) 98 % of control | dose: 15.0 mg/kg/injection, schedule: Q01DX Z (oral) 96 % of control | dose: 30.0 mg/kg/injection, schedule: Q01DX Z (oral) 98 % of control

Reference: PubChem BioAssay AID248 (DTP/NCI, 2004)
